Laboratory results as given in PubChem BioAssay (NCI).
“And” between values parts separate entries of the source, which are not always exact repeats. Equal entries are not always repeated.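 Results reflect a 48-hour exposure of cells in 96-well plates to compound at five concentrations. GI50 marks 50% less growth. Definition used: TGI = concentration required for complete inhibition of growth.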

Experiments:
Test in all cases: growth of human tumour cells (NCI), 48 h
NCI-H23 lung = system: NCI-H23 lung
SNB-75 CNS = system: SNB-75 CNS
KM12 colon = system: KM12 colon
LOX IMVI melanoma = system: LOX IMVI melanoma
SF-539 CNS = system: SF-539 CNS
RPMI-8226 leukemia = system: RPMI-8226 leukemia
M14 melanoma = system: M14 melanoma
MALME-3M melanoma = system: MALME-3M melanoma
HL-60(TB) leukemia = system: HL-60(TB) leukemia
EKVX NSCLC = system: EKVX NSCLC

SMILES	GI50 (NCI-H23 lung) [µM]	TGI (NCI-H23 lung)	GI50 (SNB-75 CNS) [µM]	TGI (SNB-75 CNS)	GI50 (KM12 colon) [µM]	TGI (KM12 colon)	GI50 (LOX IMVI melanoma) [µM]	TGI (LOX IMVI melanoma)	GI50 (SF-539 CNS) [µM]	TGI (SF-539 CNS)	GI50 (RPMI-8226 leukemia) [µM]	TGI (RPMI-8226 leukemia)	GI50 (M14 melanoma) [µM]	TGI (M14 melanoma)	GI50 (MALME-3M melanoma) [µM]	TGI (MALME-3M melanoma)	GI50 (HL-60(TB) leukemia) [µM]	TGI (HL-60(TB) leukemia)	GI50 (EKVX NSCLC) [µM]	TGI (EKVX NSCLC)
Nc1ccc(C#Cc2cncnc2Nc2ccc(OCc3cccc(F)c3)c(Cl)c2)cc1	> 20.5	> 25 µM	> 12.1	24.5 µM	10.2	> 25 µM	12.8	> 25 µM	> 15.8	> 25 µM	15.3	> 25 µM	> 23.6	> 25 µM	> 25	> 25 µM	5.68	> 25 µM	3.07	> 25 µM
COC(=O)c1ccccc1NC(=O)C(=O)CC(=O)c1ccccc1NC1=CC(=O)C(=O)c2ccccc21	–	24 µM	–	40.3 µM	–	52.8 µM	–	4.76 µM	–	46.2 µM	–	35.1 µM	–	17.9 µM	–	11.1 µM	–	12 µM	–	> 100 µM
C(CCc1nnc2c(n1)CCCC2)Cc1nnc2c(n1)CCCC2	–	> 100 µM	–	> 100 µM	–	> 100 µM	–	> 100 µM	–	> 100 µM	–	> 100 µM	–	> 100 µM	–	> 100 µM	–	> 100 µM	–	> 100 µM
COC(=O)c1ccc(=O)c2nc3/c(=C/O)c(O)cc(=O)c3[nH]c12	0.514	9.33 µM and 16.7 µM	0.482	16.4 µM and 13.6 µM	1.6	20.1 µM and 18.1 µM	0.662	20.3 µM and 15.4 µM	1.21	15.6 µM and 14.5 µM	0.393	30.7 µM and 3.93 µM	1.07	24.9 µM and 24.5 µM	3.16	11.1 µM and 18.6 µM	0.601	19.3 µM	0.557	8.52 µM and 14.2 µM
O=c1cccc(C#Cc2ccccc2)o1	4.42	12.2 µM	42.3	> 100 µM	5.05	14.6 µM	7.89	30.1 µM	3.72	27.6 µM	0.698	12.1 µM	5.9	> 22.8 µM	5.09	16.5 µM	0.71	8.17 µM	5.21	32.1 µM
Nc1nc2ccc([C@@H]3Nc4ccc5[nH]ncc5c4[C@H]4[C@H]5CCC(C5)[C@H]43)cc2s1	1.58	3.72 µM	0.319	2.47 µM	0.838	2.3 µM	0.935	2.54 µM	0.812	2.88 µM	1.39	5.3 µM	0.654	2.62 µM	0.968	2.6 µM	0.345	1.37 µM	1.47	4.92 µM
N/N=C1\c2ccccc2C2/C(=N\N)c3ccccc3C12 (stereo not given)	–	> 100 µM	–	> 100 µM	–	> 100 µM	–	> 100 µM	–	> 100 µM	–	> 100 µM	–	> 100 µM	–	> 100 µM	–	> 100 µM	–	> 100 µM
COc1ccc(-c2cnc(-c3ccc(F)cc3)[nH]2)cc1	10.6	46.6 µM	4.26	10.7 µM	1.7	3.27 µM	5.49	10.8 µM	9.46	29.6 µM	2.39	> 27.2 µM	5.99	14.5 µM	6.12	22.4 µM	2.03	23.4 µM	5.9	18.5 µM
COC(=O)c1c2c(c(C)[n+]([O-])c1C)C(=O)C=C(NCc1cccc(OC)c1)C2=O	0.515	2.57 µM	1.64	3.01 µM	–	–	0.249	1.44 µM	0.879	2.11 µM	0.848	4.29 µM	0.405	1.54 µM	0.15	0.341 µM	0.317	1.15 µM	1.01	2.26 µM
Cc1cc(O)c2c(c1)C(=O)c1cc(O)cc(O)c1C2=O	–	> 63.6 µM	–	> 81.6 µM	–	> 57.5 µM	–	47.3 µM	54.2	> 100 µM	–	99.8 µM	–	60.9 µM	–	50.6 µM	–	76.5 µM	24.3	> 100 µM
Cc1cc(=O)oc2cc(OC(=O)Nc3ccc(Cl)c(Cl)c3)ccc12	–	53 µM	–	67.3 µM	–	84 µM	–	37.2 µM	–	38.5 µM	–	36.2 µM	–	50.9 µM	–	51.8 µM	–	41.9 µM	–	85.2 µM
COC(=O)[C@]12CC[C@@H](C)[C@H](C)[C@@H]1C1=CC[C@@H]3[C@@]4(C)C(C=O)=C[C@@](C)(COC(C)=O)[C@@H]4[C@H](O)C[C@@]3(C)[C@]1(C)CC2	2.76	7.35 µM	1.74	10.5 µM	2.35	6.93 µM	1.57	2.91 µM	1.93	4.14 µM	1.4	4.55 µM	2.15	5.51 µM	1.76	3.63 µM	2.53	5.42 µM	2.76	10.2 µM
C=C1C(=O)O[C@H]2[C@H]1CC/C(COC(=O)C(=O)c1c[nH]c3ccc(OC)cc13)=C\CC[C@@]1(C)O[C@@H]21	7.01	13.8 µM	6.13	10.4 µM	7.82	14.2 µM	1.49	2.35 µM	6.15	10.4 µM	2.21	10.5 µM	5.18	10.4 µM	6.43	11 µM	5.13	12.5 µM	9.85	24.7 µM
CC(=O)OCC1OC(OC2CC3C(C)(C)C(OC(C)=O)CC[C@]3(C)C3CCC45CC4(CC[C@H]5C(C)CC(O)C4OC4(C)C)[C@]23C)C(O)C(O)C1O (stereo not given in full)	2.55	10.4 µM and 6.58 µM	3.7	8.23 µM and 12.4 µM	1.56	3.82 µM and 3.15 µM	1.25	3.72 µM and 2.58 µM	2.47	8.92 µM and 6.62 µM	–	5 µM	–	6.75 µM and 6.61 µM	4.67	16.6 µM and 8.6 µM	0.623	2.09 µM and 3.03 µM	> 60	> 60 µM and 11.7 µM
CN1CCN(c2ccc(-c3cnc4c(-c5csc6ccccc56)cnn4c3)cc2)CC1	6.06	> 15 µM	> 15	> 15 µM	4.59	> 15 µM	2.65	5.4 µM	2.36	4.62 µM	2.99	9.75 µM	5.01	> 15 µM	3.04	7.68 µM	5.89	> 15 µM	9.79	> 15 µM
O=C([O-])c1ccc2c(c1)-c1nc-2nc2[n-]c(nc3nc(nc4[n-]c(n1)c1ccc(C(=O)[O-])cc41)-c1cc(C(=O)[O-])ccc1-3)c1ccc(C(=O)[O-])cc21.[Fe+2]	> 50	> 50 µM	31.8	> 50 µM	> 50	> 50 µM	20.7	> 42.9 µM	> 29.5	> 50 µM	> 27.3	> 36.4 µM	> 50	> 50 µM	> 50	> 50 µM	> 22.9	> 30.5 µM	> 50	> 50 µM
CO[C@H]1[C@H](O)[C@H](O[C@H]2CC[C@@]3(C)[C@H](CC[C@@H]4[C@@H]3CC[C@]3(C)[C@@H](C5=CC(=O)OC5)CC[C@]43O)C2)O[C@@H](C)[C@@H]1O	–	0.00127 µM	0.00233	0.0114 µM and 0.0737 µM	–	0.0125 µM	–	0.00271 µM and < 0.0111 µM	–	0.00111 µM	–	0.00542 µM	–	0.00302 µM and 0.0169 µM	–	0.000721 µM	0.00175	0.00363 µM	–	0.00148 µM
C=CCNC1=C(C(=O)OCC)C(=O)CO1	–	> 100 µM	–	> 100 µM	–	–	–	> 100 µM	–	> 100 µM	–	> 100 µM	–	> 100 µM	–	> 100 µM	–	> 100 µM	–	> 100 µM
Nc1c(C(=O)c2cccc(OCCN3CCOCC3)c2)cnn1-c1ccc(F)cc1	> 25	> 25 µM	> 25	> 25 µM	> 25	> 25 µM	> 25	> 25 µM	> 25	> 25 µM	> 25	> 25 µM	> 25	> 25 µM	> 25	> 25 µM	> 25	> 25 µM	–	–
CC1C=C(OC(=O)c2ccccc2)C(=O)C(n2cc(F)c(=O)n(C(=O)c3ccccc3)c2=O)O1 (stereo not given)	–	> 100 µM	–	91.9 µM	–	–	–	55 µM	–	> 100 µM	–	> 100 µM	–	> 100 µM	–	95.7 µM	–	50.1 µM	–	> 100 µM
Cn1cc2c(n1)c(N/N=C/c1ccccc1)nn1nnnc21	–	> 100 µM	–	> 100 µM	–	–	–	> 100 µM	–	> 100 µM	–	> 100 µM	–	> 100 µM	–	> 100 µM	–	> 100 µM	–	> 100 µM
